Experimental data: ChEMBL document CHEMBL4350988, “Development of selective small molecule MDM2 degraders based on nutlin” (Eur J Med Chem, 2019)
One block for each compound: values may come before it. Active and inactive are the calls of the source. The calls are words filed in the database; no cut-off is given here.

What was measured:
[1] = molecular target: T1, Protein cereblon/E3 ubiquitin-protein ligase Mdm2 (Homo sapiens, UniProt Q00987+Q96SW2); assay: Protac activity at CRBN/MDM2 in human RS4:11 cells assessed as increase in degradation of MDM2 at 10 to 100 nM measured after 12 hrs by Western blot analysis; type: cell-based
Target sequence in this assay (Q00987 whole entry, looked up): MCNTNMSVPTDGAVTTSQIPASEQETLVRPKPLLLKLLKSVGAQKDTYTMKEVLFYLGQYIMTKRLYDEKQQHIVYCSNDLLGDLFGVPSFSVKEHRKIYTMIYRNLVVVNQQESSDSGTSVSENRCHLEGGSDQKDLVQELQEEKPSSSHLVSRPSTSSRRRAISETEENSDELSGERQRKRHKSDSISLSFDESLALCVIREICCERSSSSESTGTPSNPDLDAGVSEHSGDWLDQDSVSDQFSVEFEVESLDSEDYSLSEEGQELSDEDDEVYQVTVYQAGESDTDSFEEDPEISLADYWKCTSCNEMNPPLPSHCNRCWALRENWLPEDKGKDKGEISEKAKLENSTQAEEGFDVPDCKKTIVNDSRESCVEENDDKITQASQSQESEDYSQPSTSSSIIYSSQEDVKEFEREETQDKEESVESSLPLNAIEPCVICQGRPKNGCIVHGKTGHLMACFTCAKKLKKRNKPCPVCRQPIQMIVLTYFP
Target sequence in this assay (Q96SW2 whole entry, looked up): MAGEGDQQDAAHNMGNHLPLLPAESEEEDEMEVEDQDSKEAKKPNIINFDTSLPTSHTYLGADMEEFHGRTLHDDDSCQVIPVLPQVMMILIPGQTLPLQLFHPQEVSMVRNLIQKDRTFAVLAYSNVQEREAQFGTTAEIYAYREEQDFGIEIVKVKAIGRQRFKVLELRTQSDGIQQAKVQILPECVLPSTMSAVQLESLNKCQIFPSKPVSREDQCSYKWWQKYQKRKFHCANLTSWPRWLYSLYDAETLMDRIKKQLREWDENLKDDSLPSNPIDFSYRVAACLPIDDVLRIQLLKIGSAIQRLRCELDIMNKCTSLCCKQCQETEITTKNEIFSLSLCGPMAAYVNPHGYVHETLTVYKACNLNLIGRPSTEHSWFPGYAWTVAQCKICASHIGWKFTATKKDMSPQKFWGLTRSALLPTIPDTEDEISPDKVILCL

[2] = test system: RS4-11; assay: Antiproliferative activity against human RS4:11 cells assessed as reduction in cell viability after 48 hrs by MTT assay; type: functional, cell-based; settings: RS4-11, 48 h
[3] = test system: RS4-11; assay: Antiproliferative activity against human RS4:11 cells assessed as reduction in cell viability at 100 nM after 48 hrs by MTT assay; type: functional, cell-based
[4] = molecular target: T1, Protein cereblon/E3 ubiquitin-protein ligase Mdm2; assay: Protac activity at CRBN/MDM2 in human RS4:11 cells assessed as increase in degradation of MDM2 at 100 nM by Western blot analysis; type: cell-based
Target sequence in this assay (Q00987 whole entry, looked up): as the sequence (Q00987 whole entry, looked up) above
Target sequence in this assay (Q96SW2 whole entry, looked up): as the sequence (Q96SW2 whole entry, looked up) above

[5] = molecular target: T1, Protein cereblon/E3 ubiquitin-protein ligase Mdm2; assay: Protac activity at CRBN/MDM2 in human RS4:11 cells assessed as increase in accumulation of p53 at 100 nM by Western blot analysis; type: cell-based
Target sequence in this assay (Q00987 whole entry, looked up): as the sequence (Q00987 whole entry, looked up) above
Target sequence in this assay (Q96SW2 whole entry, looked up): as the sequence (Q96SW2 whole entry, looked up) above

[6] = molecular target: T1, Protein cereblon/E3 ubiquitin-protein ligase Mdm2; assay: Protac activity at CRBN/MDM2 in human RS4:11 cells assessed as MDM2 degradation by Western blot analysis; type: cell-based
[7] = molecular target: T1, Protein cereblon/E3 ubiquitin-protein ligase Mdm2; assay: Protac activity at CRBN/MDM2 in human RS4:11 cells assessed as upregulation of P53 expression at 100 nM to 1 uM by Westernblot analysis; type: cell-based
Target sequence in this assay (Q00987 whole entry, looked up): as the sequence (Q00987 whole entry, looked up) above
Target sequence in this assay (Q96SW2 whole entry, looked up): as the sequence (Q96SW2 whole entry, looked up) above

[8] = test system: RS4-11; assay: Induction of apoptosis in human RS4:11 cells assessed as early apoptotic cells at 100 nM after 24 hrs by Annexin-V-FITC/propidium iodide staining based flow cytometry relative to control; type: functional
[9] = molecular target: T1, Protein cereblon/E3 ubiquitin-protein ligase Mdm2; assay: Protac activity at CRBN/MDM2 in human RS4:11 cells assessed MDM2 degradation at 10 to 100 nM measured after 1 hr by immunoblot analysis; type: cell-based
Target sequence in this assay (Q00987 whole entry, looked up): as the sequence (Q00987 whole entry, looked up) above
Target sequence in this assay (Q96SW2 whole entry, looked up): as the sequence (Q96SW2 whole entry, looked up) above

[10] = molecular target: T1, Protein cereblon/E3 ubiquitin-protein ligase Mdm2; assay: Protac activity at CRBN/MDM2 in human RS4:11 cells assessed as upregulation of MDM2 expression at 100 nM measured after 6 hrs by qRT-PCR method; type: cell-based
Target sequence in this assay (Q00987 whole entry, looked up): as the sequence (Q00987 whole entry, looked up) above
Target sequence in this assay (Q96SW2 whole entry, looked up): as the sequence (Q96SW2 whole entry, looked up) above

[11] = molecular target: T1, Protein cereblon/E3 ubiquitin-protein ligase Mdm2; assay: Protac activity at CRBN/MDM2 in human RS4:11 cells assessed as increase in P21 expression at 100 nM to 1 uM by Westernblot analysis; type: cell-based
[12] = molecular target: T1, Protein cereblon/E3 ubiquitin-protein ligase Mdm2; assay: Protac activity at CRBN/MDM2 in human RS4:11 cells assessed as upregulation of P21 expression at 100 nM measured after 6 hrs by qRT-PCR method; type: cell-based
[13] = molecular target: T1, Protein cereblon/E3 ubiquitin-protein ligase Mdm2; assay: Protac activity at CRBN/MDM2 in human RS4:11 cells assessed as PARP cleavage after 6 hrs by Western blot analysis; type: cell-based
[14] = test system: RS4-11; assay: Induction of apoptosis in human RS4:11 cells assessed as viable cells at 100 nM after 24 hrs by Annexin-V-FITC/propidium iodide staining based flow cytometry relative to control; type: functional; settings: RS4-11, 24 h, read-out: Activity
[15] = test system: RS4-11; assay: Induction of apoptosis in human RS4:11 cells assessed as viable cells at 1000 nM after 24 hrs by Annexin-V-FITC/propidium iodide staining based flow cytometry relative to control; type: functional; settings: RS4-11, 24 h, read-out: Activity
[16] = test system: RS4-11; assay: Induction of apoptosis in human RS4:11 cells assessed as viable cells at 10 nM after 24 hrs by Annexin-V-FITC/propidium iodide staining based flow cytometry relative to control; type: functional; settings: RS4-11, 24 h, read-out: Activity
[17] = test system: RS4-11; assay: Induction of apoptosis in human RS4:11 cells assessed as PARP cleavage at 100 nM to 1 uM by Westernblot analysis; type: functional, cell-based
[18] = test system: RS4-11; assay: Induction of apoptosis in human RS4:11 cells assessed as necrotic cells at 1000 nM after 24 hrs by Annexin-V-FITC/propidium iodide staining based flow cytometry relative to control; type: functional
[19] = molecular target: T1, Protein cereblon/E3 ubiquitin-protein ligase Mdm2; assay: Protac activity at CRBN/MDM2 in human RS4:11 cells assessed as effect on TP53 expression at 30 to 100 nM measured after 6 hrs by qRT-PCR method; type: cell-based
[20] = test system: RS4-11; assay: Induction of apoptosis in human RS4:11 cells by Annexin-V-FITC/propidium iodide staining based flow cytometry relative to control; type: functional, cell-based
[21] = test system: RS4-11; assay: Induction of apoptosis in human RS4:11 cells assessed as early apoptotic cells at 10 nM after 24 hrs by Annexin-V-FITC/propidium iodide staining based flow cytometry relative to control; type: functional
[22] = molecular target: T1, Protein cereblon/E3 ubiquitin-protein ligase Mdm2; assay: (§1) Protac activity at CRBN/MDM2 in human RS4:11 cells assessed as reduction in MDM2 degradation at 100 nM preincubated with lenalidomide for 2 hrs followed by compound addition measured after 4 hrs by Western blot analysis; type: cell-based
[23] = molecular target: T1, Protein cereblon/E3 ubiquitin-protein ligase Mdm2; assay: Protac activity at CRBN/MDM2 in human RS4:11 cells assessed as MDM2 degradation at 100 nM preincubated with proteasome inhibitior MG132 for 2 hrs followed by compound addition measured after 4 hrs by Western blot analysis; type: cell-based
[24] = test system: RS4-11; assay: Induction of apoptosis in human RS4:11 cells assessed as late apoptotic cells at 1000 nM after 24 hrs by Annexin-V-FITC/propidium iodide staining based flow cytometry relative to control; type: functional
[25] = molecular target: T1, Protein cereblon/E3 ubiquitin-protein ligase Mdm2; assay: Protac activity at CRBN/MDM2 in human RS4:11 cells assessed as increase in degradation of MDM2 by Western blot analysis; type: cell-based; settings: TDE = time-dependent effect
[26] = test system: RS4-11; assay: Induction of apoptosis in human RS4:11 cells assessed as caspase3 expression at 100 nM to 1 uM by Westernblot analysis; type: functional, cell-based
[27] = test system: RS4-11; assay: Induction of apoptosis in human RS4:11 cells assessed as late apoptotic cells at 100 nM after 24 hrs by Annexin-V-FITC/propidium iodide staining based flow cytometry relative to control; type: functional
[28] = test system: RS4-11; assay: Induction of apoptosis in human RS4:11 cells assessed as late apoptotic cells at 10 nM after 24 hrs by Annexin-V-FITC/propidium iodide staining based flow cytometry relative to control; type: functional
[29] = test system: RS4-11; assay: Induction of apoptosis in human RS4:11 cells assessed as necrotic cells at 10 nM after 24 hrs by Annexin-V-FITC/propidium iodide staining based flow cytometry relative to control; type: functional
[30] = molecular target: T1, Protein cereblon/E3 ubiquitin-protein ligase Mdm2; assay: Protac activity at CRBN/MDM2 in human RS4:11 cells assessed as maximal MDM2 degradation level at 100 nM after 24 hrs by Western blot analysis relative to control; type: cell-based
[31] = test system: RS4-11; assay: Induction of apoptosis in human RS4:11 cells assessed as necrotic cells at 100 nM after 24 hrs by Annexin-V-FITC/propidium iodide staining based flow cytometry relative to control; type: functional
[32] = test system: RS4-11; assay: Induction of apoptosis in human RS4:11 cells assessed as early apoptotic cells at 1000 nM after 24 hrs by Annexin-V-FITC/propidium iodide staining based flow cytometry relative to control; type: functional
[33] = molecular target: T1, Protein cereblon/E3 ubiquitin-protein ligase Mdm2; assay: as §1, with “((4S,5R)-2-(4-(tert-butyl)-2-ethoxyphenyl)-4,5-bis(4-chlorophenyl)-4,5-dihydro-1H-imidazol-1-yl)(piperazin-1-yl)methanone” for “lenalidomide”; type: cell-based
[34] = molecular target: T1, Protein cereblon/E3 ubiquitin-protein ligase Mdm2; assay: Protac activity at CRBN/MDM2 in human RS4:11 cells assessed as degradation of MDM2 at 100 nM to 1 uM by Westernblot analysis; type: cell-based
[35] = molecular target: T1, Protein cereblon/E3 ubiquitin-protein ligase Mdm2; assay: Protac activity at CRBN/MDM2 in human RS4:11 cells assessed as effect on TP53 expression at 1 uM measured after 6 hrs by qRT-PCR method; type: cell-based
[36] = molecular target: T1, Protein cereblon/E3 ubiquitin-protein ligase Mdm2; assay: Protac activity at CRBN/MDM2 in human RS4:11 cells assessed as upregulation of P21 expression at 1 uM measured after 6 hrs by qRT-PCR method; type: cell-based
[37] = molecular target: T1, Protein cereblon/E3 ubiquitin-protein ligase Mdm2; assay: Protac activity at CRBN/MDM2 in human RS4:11 cells assessed as upregulation of MDM2 expression at 1 uM measured after 6 hrs by qRT-PCR method; type: cell-based

- Activity [1]: Active
- IC50 [2]: 7.2 nM
- Activity [4]: Active
- Activity [5]: Active
Structure (SMILES): CCOc1cc(C(C)(C)C)ccc1C1=NC(c2ccc(Cl)cc2)C(c2ccc(Cl)cc2)N1C(=O)N1CCN(CC#Cc2cccc3c2CN(C2CCC(=O)NC2=O)C3=O)CC1 (racemic)
- Activity [3]: Active

- Activity [1]: Active
Structure (SMILES): CCOc1cc(C(C)(C)C)ccc1C1=N[C@H](c2ccc(Cl)cc2)[C@H](c2ccc(Cl)cc2)N1C(=O)N1CCN(C(=O)CNC(=O)CCCC#Cc2cccc3c2CN(C2CCC(=O)NC2=O)C3=O)CC1 (some centres undefined)

- Activity [1]: Active
Structure (SMILES): CCOc1cc(C(C)(C)C)ccc1C1=N[C@@H](c2ccc(Cl)cc2)[C@@H](c2ccc(Cl)cc2)N1C(=O)N1CCN(C(=O)CCC#Cc2cccc3c2CN(C2CCC(=O)NC2=O)C3=O)CC1 (some centres undefined)

Structure (SMILES): CCOc1cc(C(C)(C)C)ccc1C1=N[C@@H](c2ccc(Cl)cc2)[C@@H](c2ccc(Cl)cc2)N1C(=O)N1CCN(CCCC#Cc2cccc3c2CN(C2CCC(=O)NC2=O)C3=O)CC1 (some centres undefined)
- Activity [3]: Active

- Activity [6]: Dose-dependent effect
- DC50 [6]: 23 nM
- Activity [7]: Active
- Activity [9]: Active
- Activity [10]: Active
- Activity [1]: Active
- Activity [11]: Active
- Activity [12]: Active
- Activity [13]: Active
- IC50 [2]: 3.2 nM
- Activity [19]: inactive
- Activity [22]: Active
- Activity [23]: Active
- Activity [25]: Tde
- Activity [4]: Active
- Emax [30]: 90%
- Activity [33]: Active
- Activity [5]: Active
- Activity [34]: Active
Structure (SMILES): CCOc1cc(C(C)(C)C)ccc1C1=N[C@@H](c2ccc(Cl)cc2)[C@@H](c2ccc(Cl)cc2)N1C(=O)N1CCN(CC#Cc2cccc3c2CN(C2CCC(=O)NC2=O)C3=O)CC1 (some centres undefined)
- Activity [8]: 22.3%
- viability at 0.1 µM [14]: 26%
- viability at 1 µM [15]: 28.8%
- viability at 0.01 µM [16]: 79.2%
- Activity [17]: Active
- Activity [18]: 0.27%
- Activity [20]: Dose-dependent effect
- Activity [21]: 10.5%
- Activity [3]: Active
- Activity [24]: 43.9%
- Activity [26]: Active
- Activity [27]: 51.6%
- Activity [28]: 10.1%
- Activity [29]: 0.2%
- Activity [31]: 0.1%
- Activity [32]: 27.1%

Structure (SMILES): CCOc1cc(C(C)(C)C)ccc1C1=N[C@@H](c2ccc(Cl)cc2)[C@@H](c2ccc(Cl)cc2)N1C(=O)N1CCN(CCC#Cc2cccc3c2CN(C2CCC(=O)NC2=O)C3=O)CC1 (some centres undefined)
- Activity [3]: Active

- Activity [35]: inactive
- Activity [36]: Active
- Activity [37]: Active
Structure (SMILES): CCOc1cc(C(C)(C)C)ccc1C1=N[C@@H](c2ccc(Cl)cc2)[C@@H](c2ccc(Cl)cc2)N1C(=O)N1CCNCC1
- Activity [8]: 10.1%
- viability at 0.1 µM [14]: 84.4%
- viability at 1 µM [15]: 69.5%
- viability at 0.01 µM [16]: 84.2%
- Activity [18]: 0.46%
- Activity [21]: 10.5%
- Activity [24]: 16.3%
- Activity [27]: 5.45%
- Activity [28]: 5.37%
- Activity [29]: 0.00582%
- Activity [31]: 0%
- Activity [32]: 13.7%
